From patent EP4180035A1, “NOVEL BETA-LACTONE INHIBITORS OF HYDROLYTIC ENZYMES AND THEIR MEDICAL AND NON MEDICAL USES” (Max-Planck-Gesellschaft zur Förderung der Wissenschaften …, priority 2021, dated 2023)

Key:
Assay type in all cases: biochemical
[1] = biological target: T1, β5 subunit of the yeast 20S proteasome (Saccharomyces cerevisiae, UniProt P30656); assay: IC50 determination with purified yeast 20S proteasome core particle (yCP), chymotrypsin-like activity, fluorogenic AMC substrate; conditions: yCP 0.05 mg/mL, 100 mM Tris-HCl pH 7.5; 45 min incubation at room temperature; Suc-Leu-Leu-Val-Tyr-AMC 200 µM (ChT-L); triplicate
T1 construct: purified yeast 20S proteasome core particle (yCP); host or cells: yeast
Method: (§1) The concentration of purified yCP was determined spectrophotometrically at 280 nm. yCP (final concentration: 0.05 mg/mL in 100 mM Tris-HCI, pH 7.5) was mixed with DMSO as a control or serial dilutions of the compound 1 in DMSO, thereby not surpassing a final concentration of 10% (v/v) DMSO. After an incubation time of 45 min at room temperature, fluorogenic substrates Boc-Leu-Arg-Arg-AMC, Z-Leu-Leu-Glu-AMC, and Suc-Leu-Leu-Val-Tyr-AMC (final concentration of 200 µM) were added to measure the residual activity of […], and chymotrypsin-like (ChT-L, β5 subunit), respectively. The assay mixture was incubated for another 60 min at RT and afterward diluted 1:10 in 20 mM Tris-HCI, pH 7.5. The AMC-molecules released by hydrolysis were measured in triplicate with a Varian Cary Eclipse Fluorescence Spectrophotometer (Agilent Technologies) at λexc = 360 nm and λem = 460 nm. Relative fluorescence units were normalized to the DMSO treated control. The calculated residual activities were plotted against the logarithm of the applied inhibitor concentration and fitted with GraphPad Prism 9. Half maximum inhibitory concentration (IC50) values were deduced from the fitted data.

[2] = biological target: T2, β2 subunit of the yeast 20S proteasome (Saccharomyces cerevisiae, UniProt P25043); assay: IC50 determination with purified yeast 20S proteasome core particle (yCP), trypsin-like activity, fluorogenic AMC substrate; conditions: yCP 0.05 mg/mL, 100 mM Tris-HCl pH 7.5; 45 min incubation at room temperature; fluorogenic substrate 200 µM, trypsin-like (T-L); read-out: binding affinities for β2
T2 construct: purified yeast 20S proteasome core particle (yCP); host or cells: yeast
Method: as §1

[3] = biological target: T3, β1 subunit of the yeast 20S proteasome (Saccharomyces cerevisiae, UniProt P38624); assay: IC50 determination with purified yeast 20S proteasome core particle (yCP), caspase-like activity, fluorogenic AMC substrate; conditions: yCP 0.05 mg/mL, 100 mM Tris-HCl pH 7.5; 45 min incubation at room temperature; fluorogenic substrate 200 µM, caspase-like (C-L); read-out: binding affinities for β1
T3 construct: purified yeast 20S proteasome core particle (yCP); host or cells: yeast
Method: as §1

- IC50 [1]: 6.2 µM
- IC50 [2]: 60 µM
- IC50 [3]: 625 µM
Compound: CC(C)C1C(=O)OC1C(=O)O (stereo not drawn) [Compound 1, 3-isopropyl-4-oxo-2-oxetanecarboxylic acid]
